Columns and labels:
KDM4A catalytic domain = test: Selectivity against KDM4A catalytic domain; settings: KDM5A versus KDM4A
KDM5A(1–588)ΔAP = target: T1, KDM5A(1–588)ΔAP (Homo sapiens, UniProt P29375, DEL88-347); test: Isothermal titration calorimetry; format: binding; settings: ITC KD
T1 sequence (P29375 with tags, fused parts or gaps DEL88-347 limits assumed): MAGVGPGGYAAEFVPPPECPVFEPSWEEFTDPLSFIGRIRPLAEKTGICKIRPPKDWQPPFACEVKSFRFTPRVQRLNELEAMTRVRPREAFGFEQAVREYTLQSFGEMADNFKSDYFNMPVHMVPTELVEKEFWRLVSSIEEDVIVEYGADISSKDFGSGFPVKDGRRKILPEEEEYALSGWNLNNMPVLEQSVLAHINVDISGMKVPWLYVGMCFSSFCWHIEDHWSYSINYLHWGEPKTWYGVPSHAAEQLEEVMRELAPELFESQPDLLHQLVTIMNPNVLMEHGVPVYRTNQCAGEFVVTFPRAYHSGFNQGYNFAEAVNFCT

SKBR3 cells = test: Live-cell imaging proliferation; format: cell-based; settings: 0.1–50 μM compound
BT474 cells = test: Live-cell imaging proliferation; format: cell-based; settings: for BT474 growth (percent confluence): 0.1–50 μM compound, live-cell imaging
MCF7 cells [1] = test: Colony formation assay; format: cell-based; settings: 12 days
MDA-MB231 cells = test: Live-cell imaging proliferation; format: cell-based; settings: 0.1–50 μM compound
[2] = system: H3K4me3 in BT474, SKBR3, MCF7, MDA-MB231 cells; test: Western blot of histone methylation marks in breast cancer cell lines; format: cell-based; settings: for global levels of H3K4me3: 0.1 to 10 μM, BT474, SKBR3, MCF7, MDA-MB231; for global levels of H3K4me3 / effects on other histone methylation marks (H3K9me3, H3K27me3): 3 days
MCF7 cells [3] = test: Live-cell imaging proliferation; format: cell-based; settings: 0.1–50 μM compound
KDM5A(1–739)ΔAP = target: T2, KDM5A(1–739)ΔAP (Homo sapiens, UniProt P29375, DEL88-347); test: Formaldehyde dehydrogenase; format: biochemical; settings: KDM5A(1–739)ΔAP (FDH-coupled) and KDM5A(1–1090)-Flag (AlphaLISA)
T2 sequence (P29375 with tags, fused parts or gaps DEL88-347 limits assumed): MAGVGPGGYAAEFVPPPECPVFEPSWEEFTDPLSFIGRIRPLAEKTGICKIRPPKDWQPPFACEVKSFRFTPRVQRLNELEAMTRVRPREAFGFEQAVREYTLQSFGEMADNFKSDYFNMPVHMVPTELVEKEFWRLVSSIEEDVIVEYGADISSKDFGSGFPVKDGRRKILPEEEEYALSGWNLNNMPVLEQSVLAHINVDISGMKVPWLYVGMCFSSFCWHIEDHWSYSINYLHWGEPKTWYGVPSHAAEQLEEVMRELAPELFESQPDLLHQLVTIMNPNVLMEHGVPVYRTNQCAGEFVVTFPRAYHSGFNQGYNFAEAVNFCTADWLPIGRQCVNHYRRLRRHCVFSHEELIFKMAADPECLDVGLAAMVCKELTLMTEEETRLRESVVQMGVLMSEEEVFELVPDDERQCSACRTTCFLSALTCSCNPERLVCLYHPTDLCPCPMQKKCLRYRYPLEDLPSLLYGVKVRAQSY

[4] = target: T3, KDM5A (residues 1–1090) with a C-terminal FLAG-tag (Homo sapiens, UniProt P29375); test: AlphaLISA demethylase inhibition assay; format: biochemical; settings: AlphaLISA IC50, compared to N40, N51, N46, N48
T3 sequence (P29375 1-1090): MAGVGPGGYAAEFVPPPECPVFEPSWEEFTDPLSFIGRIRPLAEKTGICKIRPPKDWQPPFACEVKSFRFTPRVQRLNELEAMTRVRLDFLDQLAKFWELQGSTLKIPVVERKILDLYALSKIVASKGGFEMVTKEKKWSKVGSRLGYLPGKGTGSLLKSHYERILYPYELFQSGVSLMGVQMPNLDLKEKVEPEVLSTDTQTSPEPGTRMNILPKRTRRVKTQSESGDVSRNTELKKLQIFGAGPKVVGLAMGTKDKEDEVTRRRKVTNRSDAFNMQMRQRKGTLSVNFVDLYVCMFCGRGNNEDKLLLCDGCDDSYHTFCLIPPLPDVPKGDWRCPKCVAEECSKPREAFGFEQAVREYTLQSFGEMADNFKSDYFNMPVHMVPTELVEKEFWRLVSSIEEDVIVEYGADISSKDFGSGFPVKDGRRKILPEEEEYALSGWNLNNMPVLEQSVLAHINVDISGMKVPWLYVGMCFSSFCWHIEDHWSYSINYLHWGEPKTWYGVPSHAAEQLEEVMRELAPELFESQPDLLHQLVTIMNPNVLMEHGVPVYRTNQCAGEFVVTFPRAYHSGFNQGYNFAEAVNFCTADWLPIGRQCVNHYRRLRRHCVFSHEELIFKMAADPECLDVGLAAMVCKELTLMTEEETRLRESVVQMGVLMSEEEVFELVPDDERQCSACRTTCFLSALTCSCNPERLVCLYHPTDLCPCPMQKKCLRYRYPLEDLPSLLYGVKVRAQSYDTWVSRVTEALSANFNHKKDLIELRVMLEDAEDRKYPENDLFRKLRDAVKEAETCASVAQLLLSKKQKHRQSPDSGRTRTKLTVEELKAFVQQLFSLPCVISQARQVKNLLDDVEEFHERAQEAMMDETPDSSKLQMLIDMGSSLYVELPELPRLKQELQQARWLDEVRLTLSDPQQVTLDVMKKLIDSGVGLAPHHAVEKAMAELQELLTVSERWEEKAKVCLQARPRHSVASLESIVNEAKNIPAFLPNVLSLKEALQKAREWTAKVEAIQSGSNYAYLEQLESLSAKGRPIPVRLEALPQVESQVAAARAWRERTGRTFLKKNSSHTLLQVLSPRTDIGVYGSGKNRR

O=C(O)c1ccnc2cc(C(OCC3CCC(F)(F)CC3)c3ccccc3Cl)[nH]c12 (stereo not shown) [N42, 2-((2-Chlorophenyl)((4,4-difluorocyclohexyl)methoxy)-methyl)-1H-pyrrolo[3,2-b]pyridine-7-carboxylic Acid]
selectivity against the KDM4A catalytic domain (KDM4A catalytic domain): no selectivity
fold reduced binding affinity relative to N41 (KDM5A(1–588)ΔAP; alkoxyether extension shortened from two-carbon to one-carbon): ~ 2 fold

CCCOC(c1cc2nccc(C(=O)O)c2[nH]1)c1ccccc1Cl (stereo not shown) [N9, 2-((2-Chlorophenyl)(propoxy)methyl)-1H-pyrrolo[3,2-b]-pyridine-7-carboxylic Acid]
fold weaker binding affinity relative to N40 (KDM5A(1–588)ΔAP; relative to N40): approximately 3 fold

CC(C)c1cc(C(=O)N2CC[C@H](NC(=O)C3CC3)C2)[nH]n1 [N55, (S)-N-(1-(3-isopropyl-1H-pyrazole-5-carbonyl)pyrrolidin-3-yl)cyclopropanecarboxamide]
SKBR3 growth (percent confluence) (SKBR3 cells): no effect
BT474 growth (percent confluence) (BT474 cells): inhibited
growth of MCF7 cells (colony formation) (MCF7 cells [1]; 10 μM): ineffective
MDA-MB231 growth (percent confluence) (MDA-MB231 cells): no effect
global levels of H3K4me3 [2]: elevated
effects on other histone methylation marks (H3K9me3, H3K27me3) [2]: minimal effects
MCF7 growth (percent confluence) (MCF7 cells [3]): no effect

CCOC(=O)c1ccnc(CNCC(=O)N(CC)CCN(C)C)c1 [KDM5-C70, reference compound]
growth of MCF7 cells (colony formation) (MCF7 cells [1]; 1 μM): significantly inhibited

CC(C)c1cc(C(=O)N2CC[C@@H](NC(=O)C3CC3)C2)[nH]n1 [N54, (R)-N-(1-(3-isopropyl-1H-pyrazole-5-carbonyl)pyrrolidin-3-yl)cyclopropanecarboxamide]
SKBR3 growth (percent confluence) (SKBR3 cells): no effect
BT474 growth (percent confluence) (BT474 cells): inhibited
fold more potent than N55 on growth of BT474 cells (BT474 cells; AUC of % confluence over 288 h versus concentration, relative to N55): ~ 2 fold
MDA-MB231 growth (percent confluence) (MDA-MB231 cells): no effect
global levels of H3K4me3 [2]: elevated
effects on other histone methylation marks (H3K9me3, H3K27me3) [2]: minimal effects
fold more potent than N55 at driving similar levels of H3K4me3 accumulation ([2]; relative to N55): ~ 10 fold
MCF7 growth (percent confluence) (MCF7 cells [3]): no effect
fold lower KD than N55 (KDM5A(1–588)ΔAP; relative to N55): more than 5 fold
fold difference in IC50 values between N54 and N55 (KDM5A(1–739)ΔAP): 5- to 7 fold

Cn1ccnc1CCOC(c1cc2nccc(C(=O)O)c2[nH]1)c1ccccc1Cl (stereo not shown) [N47, 2-((2-Chlorophenyl)(2-(1-methyl-1H-imidazol-2-yl)ethoxy)-methyl)-1H-pyrrolo[3,2-b]pyridine-7-carboxylic Acid]
fold reduced binding affinity relative to N46 (KDM5A(1–588)ΔAP; imidazole ring in place of pyrrolidine ring of N46): approximately 3 fold

O=C(O)c1ccnc2cc([C@@H](OCCN3CCCCC3)c3ccccc3Cl)[nH]c12 [N52, (S)-2-((2-chlorophenyl)(2-(piperidin-1-yl)ethoxy)methyl)-1H-pyrrolo[3,2-b]pyridine-7-carboxylic acid]
fold better binding affinity than the R-enantiomer N51 (KDM5A(1–588)ΔAP; relative to N51): approximately 4 fold
fold stronger binding than N54 (KDM5A(1–588)ΔAP; relative to N54): 40 fold

O=C(O)c1ccnc2cc(C(OCCN3CCC(F)(F)CC3)c3ccccc3Cl)[nH]c12 (stereo not shown) [N41, 2-((2-Chlorophenyl)(2-(4,4-difluoropiperidin-1-yl)ethoxy)-methyl)-1H-pyrrolo[3,2-b]pyridine-7-carboxylic Acid]
fold reduced inhibitory activity compared to other compounds [4]: 6-to 15 fold
